Experimental data as given in patent US11124554B2, “Modified ligand-gated ion channels and methods of use” (Howard Hughes Medical Institute, priority 2016, dated 2021).
Read-outs that look alike come from different tables or passages of the source.

What was measured:
α7^L131G-GlyR = target: T1, α7^L131G-GlyR (Homo sapiens, UniProt P36544, L131G); experiment: Agonist potency at chimeric channel (Table 9); type: cell-based
T1 construct: expressed in transfected cells

α7^Q79G,G175K-GlyR = target: T2, α7^Q79G,G175K-GlyR (Homo sapiens, UniProt P36544, G175K/Q79G); experiment: Agonist potency at chimeric channel; type: cell-based
T2 construct: expressed in transfected cells

α7^Q79G,Q139L,G175K-GlyR = target: T3, α7^Q79G,Q139L,G175K-GlyR (Homo sapiens, UniProt P36544, G175K/Q139L/Q79G); experiment: Agonist potency at chimeric channel; type: cell-based
T3 construct: expressed in transfected cells

α7^W77F,G175K,Y210F-GlyR = target: T4, α7^W77F,G175K,Y210F-GlyR (Homo sapiens, UniProt P36544, G175K/W77F/Y210F); experiment: Agonist potency at chimeric channel; type: cell-based
T4 construct: expressed in transfected cells

[1] = target: T5, α7GlyR R27D E41R Q79G Y115F (Homo sapiens, UniProt P36544, E41R/Q79G/R27D/Y115F); experiment: Agonist potency at chimeric channel (Table 7); type: cell-based
T5 construct: expressed in transfected cells

α7GlyR L131G D219A = target: T6, α7GlyR L131G D219A (Homo sapiens, UniProt P36544, D219A/L131G); experiment: Agonist potency at chimeric channel (Table 9); type: cell-based
T6 construct: expressed in transfected cells

α7^L131V-GlyR = target: T7, α7^L131V-GlyR (Homo sapiens, UniProt P36544, L131V); experiment: Agonist potency at chimeric channel (Table 9); type: cell-based
T7 construct: expressed in transfected cells

α7^Q79A-5HT3 = target: T8, α7^Q79A-5HT3 (Homo sapiens, UniProt P36544, M226I/Q79A/T225I); experiment: Agonist potency (EC50), HEK cells expressing chimeric channel; type: cell-based, human α7 nAChR LBD, murine 5HT3 IPD; conditions: read-out: Mean EC50, α7^Q79A-5HT3
T8 construct: expressed in transfected cells; host or cells: HEK cells

α7^Q79S,L131G-GlyR = target: T9, α7^Q79S,L131G-GlyR (Homo sapiens, UniProt P36544, L131G/Q79S); experiment: Agonist potency at chimeric channel (Table 9); type: cell-based
T9 construct: expressed in transfected cells

α7^L131G,Y217F-GlyR = target: T10, α7^L131G,Y217F-GlyR (Homo sapiens, UniProt P36544, L131G/Y217F); experiment: Agonist potency at chimeric channel (Table 9); type: cell-based
T10 construct: expressed in transfected cells

α7^G175K-GlyR = target: T11, α7^G175K-GlyR (Homo sapiens, UniProt P36544, G175K); experiment: Agonist potency at chimeric channel; type: cell-based
T11 construct: expressed in transfected cells

α7^L131M-GlyR = target: T12, α7^L131M-GlyR (Homo sapiens, UniProt P36544, L131M); experiment: Agonist potency at chimeric channel (Table 9); type: cell-based
T12 construct: expressed in transfected cells

[2] = target: T13, α7GlyR Q79G Y115F G175K Y210F (Homo sapiens, UniProt P36544, G175K/Q79G/Y115F/Y210F); experiment: Agonist potency at chimeric channel; type: cell-based
T13 construct: expressed in transfected cells

α7^G175K,Y210F-GlyR = target: T14, α7^G175K,Y210F-GlyR (Homo sapiens, UniProt P36544, G175K/Y210F); experiment: Agonist potency at chimeric channel; type: cell-based
T14 construct: expressed in transfected cells

α7-5HT3 = target: T15, α7-5HT3 (Homo sapiens, UniProt P36544, M226I/T225I); experiment: Agonist potency (EC50), HEK cells expressing chimeric channel; type: cell-based, human α7 nAChR LBD, murine 5HT3 IPD
T15 construct: expressed in transfected cells; host or cells: HEK cells

α7^Q79S-GlyR = target: T16, α7^Q79S-GlyR (Homo sapiens, UniProt P36544, Q79S); experiment: as above; type: cell-based
T16 construct: expressed in transfected cells; host or cells: HEK cells

α7^L131G,Q139L-GlyR = target: T17, α7^L131G,Q139L-GlyR (Homo sapiens, UniProt P36544, L131G/Q139L); experiment: Agonist potency at chimeric channel (Table 9); type: cell-based
T17 construct: expressed in transfected cells

α7^Q79G-GlyR = target: T18, α7^Q79G-GlyR (Homo sapiens, UniProt P36544, Q79G); experiment: Agonist potency (EC50), HEK cells expressing chimeric channel; type: cell-based
T18 construct: expressed in transfected cells; host or cells: HEK cells

α7^L131A-GlyR = target: T19, α7^L131A-GlyR (Homo sapiens, UniProt P36544, L131A); experiment: Agonist potency at chimeric channel (Table 9); type: cell-based
T19 construct: expressed in transfected cells

α7^Y115F,G175K-GlyR = target: T20, α7^Y115F,G175K-GlyR (Homo sapiens, UniProt P36544, G175K/Y115F); experiment: Agonist potency at chimeric channel; type: cell-based
T20 construct: expressed in transfected cells

α7^W77F,Q79G,G175K-GlyR = target: T21, α7^W77F,Q79G,G175K-GlyR (Homo sapiens, UniProt P36544, G175K/Q79G/W77F); experiment: Agonist potency at chimeric channel; type: cell-based
T21 construct: expressed in transfected cells

α7^L131Q-GlyR = target: T22, α7^L131Q-GlyR (Homo sapiens, UniProt P36544, L131Q); experiment: Agonist potency at chimeric channel (Table 9); type: cell-based
T22 construct: expressed in transfected cells

[3] = test system: α7GlyR chimeric channels with G175K and A298G mutations; type: cell-based, human
α7^L131G-5HT3 HC = target: T23, α7^L131G-5HT3 HC (Homo sapiens, UniProt P36544, L131G, form not given); experiment: Agonist potency at chimeric channel (Table 9); type: cell-based; conditions: read-out: Agonist potency
T23 construct: rows headed: Agonist potency; other: α75HT3 L131G HC; α75HT3 L131G HC; fused on or other part: 5-HT3A receptor ion pore domain at the C-terminus

[4] = target: T24, α7^L141F,Y115F,G175K-GlyR (Homo sapiens, UniProt P36544, G175K/L141F/Y115F); experiment: Agonist potency at chimeric channel; type: cell-based
T24 construct: expressed in transfected cells

α7^Q79G,Y115F,G175K-GlyR = target: T25, α7^Q79G,Y115F,G175K-GlyR (Homo sapiens, UniProt P36544, G175K/Q79G/Y115F); experiment: Agonist potency at chimeric channel; type: cell-based
T25 construct: expressed in transfected cells

α7^Q79S-5HT3 = target: T26, α7^Q79S-5HT3 (Homo sapiens, UniProt P36544, M226I/Q79S/T225I); experiment: Agonist potency (EC50), HEK cells expressing chimeric channel; type: cell-based, human α7 nAChR LBD, murine 5HT3 IPD; conditions: read-out: Mean EC50, α7^Q79S-5HT3
T26 construct: expressed in transfected cells; host or cells: HEK cells

α7^P216I-GlyR = target: T27, α7^P216I-GlyR (Homo sapiens, UniProt P36544, P216I); experiment: Agonist potency at chimeric channel; type: cell-based
T27 construct: expressed in transfected cells

α7^Q79G-GlyR^A298G = target: T28, α7^Q79G-GlyR^A298G (Homo sapiens, UniProt P36544, A298G/Q79G); experiment: Agonist potency (EC50), HEK cells expressing chimeric channel; type: cell-based
T28 construct: expressed in transfected cells; host or cells: HEK cells

[5] = read-out: Agonist potency; α7GlyR Q79G A298G G175K Y115F
[6] = read-out: Agonist potency; α7GlyR Q79G A298G P2161
[7] = read-out: Agonist potency; α7GlyR Q79G A298G Y115F K395 K396A
[8] = read-out: Agonist potency; α7GlyR Q79G G175K A298G
[9] = read-out: Agonist potency; α7GlyR Q79G W77F A298G

T9 sequence (P36544 with tags, fused parts or gaps Q79S/L131G): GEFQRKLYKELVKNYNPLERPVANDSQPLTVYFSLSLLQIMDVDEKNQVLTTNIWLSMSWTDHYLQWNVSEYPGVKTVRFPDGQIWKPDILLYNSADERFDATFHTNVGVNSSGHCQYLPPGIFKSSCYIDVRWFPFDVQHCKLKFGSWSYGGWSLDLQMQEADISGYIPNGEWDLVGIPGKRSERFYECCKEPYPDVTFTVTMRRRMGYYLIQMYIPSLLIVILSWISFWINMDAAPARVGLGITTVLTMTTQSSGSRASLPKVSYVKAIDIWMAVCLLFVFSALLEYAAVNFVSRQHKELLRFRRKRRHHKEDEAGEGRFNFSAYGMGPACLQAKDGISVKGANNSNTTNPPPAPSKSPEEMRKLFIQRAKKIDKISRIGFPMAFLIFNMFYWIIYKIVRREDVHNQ
T16 sequence (P36544 with tags, fused parts or gaps Q79S): as the sequence (P36544 with tags, fused parts or gaps Q79S/L131G) above, with G109L counted along it
T13 sequence (P36544 with tags, fused parts or gaps Q79G/Y115F/G175K/Y210F): as the sequence (P36544 with tags, fused parts or gaps Q79S/L131G) above, with S57G, Y93F, G109L, G153K, Y188F counted along it
T8 sequence (P36544 with tags, fused parts or gaps Q79A/T225I/M226I): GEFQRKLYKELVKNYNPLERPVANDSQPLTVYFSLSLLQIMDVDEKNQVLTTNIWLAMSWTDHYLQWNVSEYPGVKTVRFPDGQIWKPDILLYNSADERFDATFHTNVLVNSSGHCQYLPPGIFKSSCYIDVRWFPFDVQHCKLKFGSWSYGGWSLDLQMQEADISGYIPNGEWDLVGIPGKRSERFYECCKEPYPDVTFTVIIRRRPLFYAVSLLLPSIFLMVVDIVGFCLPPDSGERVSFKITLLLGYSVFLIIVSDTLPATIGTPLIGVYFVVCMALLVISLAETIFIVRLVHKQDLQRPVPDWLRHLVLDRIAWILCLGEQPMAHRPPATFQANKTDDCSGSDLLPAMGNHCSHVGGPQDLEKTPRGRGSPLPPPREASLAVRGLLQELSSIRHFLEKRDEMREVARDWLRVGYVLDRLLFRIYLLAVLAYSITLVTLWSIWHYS
T24 sequence (P36544 with tags, fused parts or gaps Y115F/L141F/G175K): as the sequence (P36544 with tags, fused parts or gaps Q79S/L131G) above, with S57Q, Y93F, G109L, L119F, G153K counted along it
T12 sequence (P36544 with tags, fused parts or gaps L131M): as the sequence (P36544 with tags, fused parts or gaps Q79S/L131G) above, with S57Q, G109M counted along it
T11 sequence (P36544 with tags, fused parts or gaps G175K): as the sequence (P36544 with tags, fused parts or gaps Q79S/L131G) above, with S57Q, G109L, G153K counted along it
T19 sequence (P36544 with tags, fused parts or gaps L131A): as the sequence (P36544 with tags, fused parts or gaps Q79S/L131G) above, with S57Q, G109A counted along it
T23 sequence (P36544 23-224 L131G limits assumed, form open): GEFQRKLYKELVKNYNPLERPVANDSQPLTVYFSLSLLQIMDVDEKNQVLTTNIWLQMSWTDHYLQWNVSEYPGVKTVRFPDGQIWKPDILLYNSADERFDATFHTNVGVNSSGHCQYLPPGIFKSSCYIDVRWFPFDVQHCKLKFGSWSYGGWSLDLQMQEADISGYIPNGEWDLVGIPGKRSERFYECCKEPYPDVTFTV
T5 sequence (P36544 with tags, fused parts or gaps R27D/E41R/Q79G/Y115F): as the sequence (P36544 with tags, fused parts or gaps Q79S/L131G) above, with R5D, E19R, S57G, Y93F, G109L counted along it
T10 sequence (P36544 with tags, fused parts or gaps L131G/Y217F): as the sequence (P36544 with tags, fused parts or gaps Q79S/L131G) above, with S57Q, Y195F counted along it
T20 sequence (P36544 with tags, fused parts or gaps Y115F/G175K): as the sequence (P36544 with tags, fused parts or gaps Q79S/L131G) above, with S57Q, Y93F, G109L, G153K counted along it
T22 sequence (P36544 with tags, fused parts or gaps L131Q): as the sequence (P36544 with tags, fused parts or gaps Q79S/L131G) above, with S57Q, G109Q counted along it
T2 sequence (P36544 with tags, fused parts or gaps Q79G/G175K): as the sequence (P36544 with tags, fused parts or gaps Q79S/L131G) above, with S57G, G109L, G153K counted along it
T28 sequence (P36544 with tags, fused parts or gaps Q79G): as the sequence (P36544 with tags, fused parts or gaps Q79S/L131G) above, with S57G, G109L, A276G counted along it
T21 sequence (P36544 with tags, fused parts or gaps W77F/Q79G/G175K): as the sequence (P36544 with tags, fused parts or gaps Q79S/L131G) above, with W55F, S57G, G109L, G153K counted along it
T26 sequence (P36544 with tags, fused parts or gaps Q79S/T225I/M226I): as the sequence (P36544 with tags, fused parts or gaps Q79A/T225I/M226I) above, with A57S counted along it
T25 sequence (P36544 with tags, fused parts or gaps Q79G/Y115F/G175K): as the sequence (P36544 with tags, fused parts or gaps Q79S/L131G) above, with S57G, Y93F, G109L, G153K counted along it
T4 sequence (P36544 with tags, fused parts or gaps W77F/G175K/Y210F): as the sequence (P36544 with tags, fused parts or gaps Q79S/L131G) above, with W55F, S57Q, G109L, G153K, Y188F counted along it
T18 sequence (P36544 with tags, fused parts or gaps Q79G): as the sequence (P36544 with tags, fused parts or gaps Q79S/L131G) above, with S57G, G109L counted along it
T14 sequence (P36544 with tags, fused parts or gaps G175K/Y210F): as the sequence (P36544 with tags, fused parts or gaps Q79S/L131G) above, with S57Q, G109L, G153K, Y188F counted along it
T17 sequence (P36544 with tags, fused parts or gaps L131G/Q139L): as the sequence (P36544 with tags, fused parts or gaps Q79S/L131G) above, with S57Q, Q117L counted along it
T1 sequence (P36544 with tags, fused parts or gaps L131G): as the sequence (P36544 with tags, fused parts or gaps Q79S/L131G) above, with S57Q counted along it
T6 sequence (P36544 with tags, fused parts or gaps L131G/D219A): as the sequence (P36544 with tags, fused parts or gaps Q79S/L131G) above, with S57Q, D197A counted along it
T3 sequence (P36544 with tags, fused parts or gaps Q79G/Q139L/G175K): as the sequence (P36544 with tags, fused parts or gaps Q79S/L131G) above, with S57G, G109L, Q117L, G153K counted along it
T15 sequence (P36544 with tags, fused parts or gaps T225I/M226I): as the sequence (P36544 with tags, fused parts or gaps Q79A/T225I/M226I) above, with A57Q counted along it
T7 sequence (P36544 with tags, fused parts or gaps L131V): as the sequence (P36544 with tags, fused parts or gaps Q79S/L131G) above, with S57Q, G109V counted along it
T27 sequence (P36544 with tags, fused parts or gaps P216I): as the sequence (P36544 with tags, fused parts or gaps Q79S/L131G) above, with S57Q, G109L, P194I counted along it

Row | Structure (SMILES) | EC50 (α7^L131G-GlyR) [nM] | EC50 (α7^Q79G,G175K-GlyR) [nM] | EC50 (α7^Q79G,Q139L,G175K-GlyR) [nM] | EC50 (α7^W77F,G175K,Y210F-GlyR) [nM] | EC50 [1] [nM] | EC50 (α7GlyR L131G D219A) [nM] | EC50 (α7^L131V-GlyR) [nM] | EC50 (α7^Q79S,L131G-GlyR) [nM] | EC50 (α7^L131G,Y217F-GlyR) [nM] | EC50 (α7^G175K-GlyR) [nM] | EC50 (α7^L131M-GlyR) [nM] | EC50 [2] [nM] | EC50 (α7^G175K,Y210F-GlyR) [nM] | EC50 (α7^Q79S-GlyR) [nM] | EC50 (α7^L131G,Q139L-GlyR) [nM] | EC50 (α7^Q79G-GlyR) [nM] | EC50 (α7^L131A-GlyR) [nM] | EC50 (α7^Y115F,G175K-GlyR) [nM] | EC50 (α7^W77F,Q79G,G175K-GlyR) [nM] | EC50 (α7^L131Q-GlyR) [nM] | also measured
1 | O=c1cccc2n1C[C@@H]1CNC[C@H]2C1 [Cytisine] | 13100 | 2500 | 3240 | 5100 | > 30000 | > 30000 | 4300 | 8100 | 30000 | 400 | 7000 | > 30000 | > 10000 | 2500 | 12000 | 5600 | 20600 | 7100 | 6900 | > 30000 | EC50 (α7^Q79A-5HT3): 4000 nM; EC50 (α7-5HT3; read-out: Mean EC50, α7-5HT3): 8200 nM; EC50 [3, 5]: 4600 nM; EC50 [3, 6]: 5500 nM; EC50 [3, 7]: > 30000 nM; EC50 [3, 8]: 134 nM; EC50 [3, 9]: 14100 nM; EC50 (α7^L131G-5HT3 HC): 11000 nM; EC50 [4]: 4740 nM; EC50 (α7^Q79G,Y115F,G175K-GlyR): > 10000 nM; EC50 (α7^Q79S-5HT3): 4400 nM
2 | O=C(NC1CN2CCC1CC2)c1ccc(Cl)cc1 (stereo not drawn) [PNU-282987] | 34 | 60 | 50 | > 40000 | 340 | 410 | 64 | 6 | 54 | 5 | 21 | > 1000 | 700 | 14 | 63 | 26 | 55 | 100 | 500 | 48 | EC50 (α7^Q79A-5HT3): 37 nM; EC50 (α7-5HT3; read-out: Mean EC50, α7-5HT3): 220 nM; EC50 (α7-5HT3; read-out: α7-5HT3 EC50): 220 nM; EC50 (α7^P216I-GlyR): 40 nM; EC50 [3, 5]: 9 nM; EC50 [3, 6]: 250 nM; EC50 [3, 7]: 110 nM; EC50 [3, 8]: 0.36 nM; EC50 [3, 9]: 1630 nM; EC50 (α7^L131G-5HT3 HC): 33 nM; EC50 [4]: 510 nM; EC50 (α7^Q79G,Y115F,G175K-GlyR): 80 nM; EC50 (α7^Q79S-5HT3): 23 nM; EC50 (α7^Q79G-GlyR^A298G): 7 nM; EC50 (α7^Q79G-GlyR^A298G; read-out: α7^Q79G-GlyR^A298G EC50): 7 nM
3 | Clc1ccc(C2CC3CCC2N3)cn1 (stereo not drawn) [Epibatidine] | 9 | 37 | 144 | 380 | 267 | 160 | 210 | 7 | 15 | 5 | 42 | > 10000 | 650 | 24 | 12 | 69 | 27 | 36 | 2600 | 27 | EC50 (α7^Q79A-5HT3; HEK cells, Table 1): 67 nM; EC50 (α7-5HT3; read-out: Mean EC50, α7-5HT3, HEK cells, Table 1): 53 nM; EC50 (α7^P216I-GlyR): 30 nM; EC50 ([3]; α7GlyR Q79G A298G G175K Y115F; read-out: Agonist potency): 11 nM; EC50 ([3]; α7GlyR Q79G A298G P2161; read-out: Agonist potency): 50 nM; EC50 ([3]; α7GlyR Q79G A298G Y115F K395 K396A; read-out: Agonist potency): 150 nM; EC50 ([3]; α7GlyR Q79G G175K A298G; read-out: Agonist potency): 2.3 nM; EC50 ([3]; α7GlyR Q79G W77F A298G; read-out: Agonist potency): 370 nM; EC50 (α7^L131G-5HT3 HC; α75HT3 L131G HC): 9 nM; EC50 [4]: 144 nM; EC50 (α7^Q79G,Y115F,G175K-GlyR): 220 nM; EC50 (α7^Q79S-5HT3; HEK cells, Table 1): 44 nM; EC50 (α7^Q79G-GlyR^A298G): 32 nM
